In patent US20160361444A1, “USE OF IVABRADINE AS DIAGNOSTIC AGENT IN THE METHOD OF CORONARY ANGIOGRAPHY BY MULTISLICE COMPUTED TOMOGRAPHY” (LES LABORATOIRES SERVIER, priority 2008, published 2016):

Assay: Clinical study: effect of i.v. administration of ivabradine hydrochloride on heart rate in healthy volunteers
Type: in vivo
Conditions: i.v. bolus of ivabradine hydrochloride solution containing 16 mg ivabradine base, resting heart rate (lying position) at T0+30 min, vs placebo control group
Description: Clinical Study. Effect of i.v. Administration of Ivabradine Hydrochloride on Heart Rate in Healthy Volunteers.
Resting heart rate (in a lying position) is measured at T0. The subjects are then given an i.v. bolus of a solution of ivabradine hydrochloride containing 16 mg of ivabradine base (treated group, n=8) or of placebo (control group, n=2). The resting heart rate (in a lying position) is again measured at T0+30 min.

COc1cc2c(cc1OC)CC(=O)N(CCCN(C)C[C@H]1Cc3cc(OC)c(OC)cc31)CC2 [ivabradine]
heart rate lower than the heart rate in the control group: 16%
